The target of this experiment is T1, JAK3 (recombinant human kinase domain; h-jak3(810-1124)) (Homo sapiens, UniProt P52333).
T1 construct: h-jak3(810- 1124)-sf9-c; made in house; host or cells: Sf9 insect cells
T1 sequence (P52333 810-1124): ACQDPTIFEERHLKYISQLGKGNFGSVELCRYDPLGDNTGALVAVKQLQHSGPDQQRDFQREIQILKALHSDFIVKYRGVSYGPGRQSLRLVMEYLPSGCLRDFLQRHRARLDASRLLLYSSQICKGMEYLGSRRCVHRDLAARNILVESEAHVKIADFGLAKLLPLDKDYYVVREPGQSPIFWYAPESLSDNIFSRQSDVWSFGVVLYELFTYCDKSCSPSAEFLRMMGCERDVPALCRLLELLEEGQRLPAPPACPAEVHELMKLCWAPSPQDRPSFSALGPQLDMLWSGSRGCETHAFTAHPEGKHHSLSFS
Kind of experiment: Determination of IC50 of Janus Kinase (JAK) inhibition: JAK3, radioactive end-point assay with 33P-ATP. The format is biochemical. Conditions: JAK3 kinase domain; ATP 1.5 uM, peptide 50 uM, 20 minutes, room temperature, 10% DMSO; read-out: Ic50 h-jak3(810-1124)-sf9-c:no additive.
Take `CC(=O)N[C@@H]1CCc2cc(Oc3cnc4[nH]cc(C(=O)N[C@@H](C)C(C)(C)C)c4n3)ccc21` [Example I-291, 2-((R)-1-Acetylamino-indan-5-yloxy)-5H-pyrrolo[2,3-b]pyrazine-7-carboxylic acid ((S)-1,2,2-trimethyl-propyl)-amide]: the half-inhibitory concentration (IC50) turned out to be 37 nM.

Regarding `Cc1cc(C)nc(Oc2cnc3[nH]cc(C(=O)NC(C)C)c3n2)c1` [Example I-279, 2-(4,6-Dimethyl-pyridin-2-yloxy)-5H-pyrrolo[2,3-b]pyrazine-7-carboxylic acid isopropylamide], the IC50 worked out at 1110 nM.

As for `CCNC(=O)c1c[nH]c2ncc(Oc3ccc(C#N)cc3)nc12` [Example I-267, 2-(4-Cyano-phenoxy)-5H-pyrrolo[2,3-b]pyrazine-7-carboxylic acid ethylamide], the half-maximal inhibitory concentration (IC50) came to 2360 nM.

Regarding `C[C@H](NC(=O)c1c[nH]c2ncc(-c3cn(-c4cccc(C(C)(C)C)c4)cn3)nc12)C(C)(C)C` [Example I-153, 2-[1-(3-tert-Butyl-phenyl)-1H-imidazol-4-yl]-5H-pyrrolo[2,3-b]pyrazine-7-carboxylic acid ((S)-1,2,2-trimethyl-propyl)-amide], the IC50 turned out to be 75.4 nM.

In the case of `C[C@H](NC(=O)c1c[nH]c2ncc(-c3ccc(C(=O)NCc4c(F)cccc4F)s3)nc12)C(C)(C)C` [Example I-188, 2-[5-(2,6-Difluoro-benzylcarbamoyl)-thiophen-2-yl]-5H-pyrrolo[2,3-b]pyrazine-7-carboxylic acid ((S)-1,2,2-trimethyl-propyl)-amide], the concentration for half-maximal inhibition (IC50) was 0.41 nM.

Turning to `O=C(N[C@H](C1CC1)C1(O)CCCC1)c1c[nH]c2ncc(C3CC3)nc12` [Example I-104, 2-Cyclopropyl-5H-pyrrolo[2,3-b]pyrazine-7-carboxylic acid [(R)-cyclopropyl-(1-hydroxy-cyclopentyl)-methyl]-amide], the IC50 came to 16.3 nM.

Turning to `C[C@H](NC(=O)c1c[nH]c2ncc(-c3ccc(C(N)=O)s3)nc12)C(C)(C)C` [Example I-215, 2-(5-Carbamoyl-thiophen-2-yl)-5H-pyrrolo[2,3-b]pyrazine-7-carboxylic acid ((S)-1,2,2-trimethyl-propyl)-amide], the IC50 stood at 0.21 nM.

On to `CCNC(=O)c1c[nH]c2ncc(Oc3ccc4cc[nH]c4c3)nc12` [Example I-273, 2-(1H-Indol-6-yloxy)-5H-pyrrolo[2,3-b]pyrazine-7-carboxylic acid ethylamide], for which the IC50 turned out to be 470 nM.

As to `Cc1ccc(-c2cnc3[nH]cc(C(=O)N[C@@H](C)C(C)(C)O)c3n2)cn1` [Example I-21, 2-(6-Methyl-pyridin-3-yl)-5H-pyrrolo[2,3-b]pyrazine-7-carboxylic acid ((S)-2-hydroxy-1,2-dimethyl-propyl)-amide], the half-maximal inhibitory concentration (IC50) was 45 nM.

In the case of `CC[C@H](NC(=O)c1c[nH]c2ncc(C3CC3)nc12)C(C)(C)O` [Example I-29, 2-Cyclopropyl-5H-pyrrolo[2,3-b]pyrazine-7-carboxylic acid ((S)-1-ethyl-2-hydroxy-2-methyl-propyl)-amide], the half-maximal inhibitory concentration (IC50) was 54.3 nM.

Turning to `C[C@H](NC(=O)c1c[nH]c2ncc(-c3ccc(C(=O)Nc4ccc5c(c4)CCCC5)s3)nc12)C(C)(C)C` [Example I-200, 2-[5-(5,6,7,8-Tetrahydro-naphthalen-2-ylcarbamoyl)-thiophen-2-yl]-5H-pyrrolo[2,3-b]pyrazine-7-carboxylic acid ((S)-1,2,2-trimethyl-propyl)-amide], the 50% inhibitory concentration (IC50) turned out to be 0.73 nM.

As to `N#CCCNC(=O)c1c[nH]c2ncc(C3CC3)nc12` [Example I-13, 2-Cyclopropyl-5H-pyrrolo[2,3-b]pyrazine-7-carboxylic acid (2-cyano-ethyl)-amide], the concentration for half-maximal inhibition (IC50) stood at 436 nM.

`COc1ccc(OC)c(CNC(=O)c2ccc(-c3cnc4[nH]cc(C(=O)N[C@@H](C)C(C)(C)C)c4n3)s2)c1` [Example I-204, 2-[5-(2,5-Dimethoxy-benzylcarbamoyl)-thiophen-2-yl]-5H-pyrrolo[2,3-b]pyrazine-7-carboxylic acid ((S)-1,2,2-trimethyl-propyl)-amide]: the concentration for half-maximal inhibition (IC50) is 0.56 nM.

For `CC(C)[C@H](C)NC(=O)c1c[nH]c2ncc(Oc3ccccc3)nc12` [Example I-122, 2-Phenoxy-5H-pyrrolo[2,3-b]pyrazine-7-carboxylic acid ((S)-1,2-dimethyl-propyl)-amide], the IC50 came out at 63.8 nM.

For `C[C@H](NC(=O)c1c[nH]c2ncc(-c3ccc(C(=O)N4CCCCC4)s3)nc12)C(C)(C)C#N` [Example I-224, 2-[5-(Piperidine-1-carbonyl)-thiophen-2-yl]-5H-pyrrolo[2,3-b]pyrazine-7-carboxylic acid ((S)-2-cyano-1,2,2-trimethyl-ethyl)-amide], the half-inhibitory concentration (IC50) worked out at 0.36 nM.

For the compound `Cc1cc(-c2cnc3[nH]cc(C(=O)N[C@@H](C)C(C)(C)C)c3n2)sc1C(=O)N1CC(CO)(CO)C1` [Example I-222, 2-[5-(3,3-Bis-hydroxymethyl-azetidine-1-carbonyl)-4-methyl-thiophen-2-yl]-5H-pyrrolo[2,3-b]pyrazine-7-carboxylic acid ((S)-1,2,2-trimethyl-propyl)-amide], the 50% inhibitory concentration (IC50) was found to be 0.11 nM.

As for `CC(C)(CO)CNC(=O)c1c[nH]c2ncc(N3CCCC3)nc12` [Example I-10, 2-Pyrrolidin-1-yl-5H-pyrrolo[2,3-b]pyrazine-7-carboxylic acid (3-hydroxy-2,2-dimethyl-propyl)-amide], the half-maximal inhibitory concentration (IC50) is 34.3 nM.

In the case of `C[C@H](NC(=O)c1c[nH]c2ncc(-c3cnn(C)c3)nc12)C(C)(C)C#N` [Example I-139, 2-(1-Methyl-1H-pyrazol-4-yl)-5H-pyrrolo[2,3-b]pyrazine-7-carboxylic acid ((S)-2-cyano-1,2,2-trimethyl-ethyl)-amide], the IC50 was 0.55 nM.

On to `C[C@H](NC(=O)c1c[nH]c2ncc(-c3ccc(C(=O)N4CC(C(N)=O)C4)s3)nc12)C(C)(C)C` [Example I-179, 2-[5-(3-Carbamoyl-azetidine-1-carbonyl)-thiophen-2-yl]-5H-pyrrolo[2,3-b]pyrazine-7-carboxylic acid ((S)-1,2,2-trimethyl-propyl)-amide], for which the IC50 was determined as 0.32 nM.

Consider `C[C@H](NC(=O)c1c[nH]c2ncc(-c3ccc(C(=O)NC(C)(C)C)s3)nc12)C(C)(C)C` [Example I-157, 2-(5-tert-Butylcarbamoyl-thiophen-2-yl)-5H-pyrrolo[2,3-b]pyrazine-7-carboxylic acid ((S)-1,2,2-trimethyl-propyl)-amide], for which the half-maximal inhibitory concentration (IC50) was 0.43 nM.

As for `C[C@@H](NC(=O)c1c[nH]c2ncc(Oc3ccccc3)nc12)C(C)(C)C` [Example I-130, 2-Phenoxy-5H-pyrrolo[2,3-b]pyrazine-7-carboxylic acid ((R)-1,2,2-trimethyl-propyl)-amide], the 50% inhibitory concentration (IC50) turned out to be 659 nM.

Regarding `C[C@H](NC(=O)c1c[nH]c2ncc(-c3ccc(C(=O)N4C5CCC4CC5)s3)nc12)C(C)(C)C` [Example I-177, 2-[5-(7-Aza-bicyclo[2.2.1]heptane-7-carbonyl)-thiophen-2-yl]-5H-pyrrolo[2,3-b]pyrazine-7-carboxylic acid ((S)-1,2,2-trimethyl-propyl)-amide], the 50% inhibitory concentration (IC50) came to 0.32 nM.

For the compound `CC(Cc1ccccn1)NC(=O)c1ccc(-c2cnc3[nH]cc(C(=O)N[C@@H](C)C(C)(C)C)c3n2)s1` (stereo partly drawn) [Example I-176, 2-[5-(1-Methyl-2-pyridin-2-yl-ethylcarbamoyl)-thiophen-2-yl]-5H-pyrrolo[2,3-b]pyrazine-7-carboxylic acid ((S)-1,2,2-trimethyl-propyl)-amide], the IC50 was found to be 0.46 nM.
